One assay deals with tau. The class given is cell-based, mouse. The settings on record: for de-phosphorylation of tau at PP2A sensitive sites: increasing concentration of phenformin over 16 h or 1 h. The procedure:
(§1) Primary cortical neurons were isolated from brain of wt or transgenic (Mapt^tm1(EGFP)klt Tg(MAPT)8cPdav/J; Jackson Laboratory) embryos at day 14.5. Cortices were collected in DMEM (Lonza) and cells were dissociated by incubation with Trypsin/EDTA for 6.5 min at 37° C. Cells were then diluted in neurobasal medium (Gibco-BRL) containing B27 supplement (Gibco BRL). Cells were plated at a density of 4.0×10^5 onto 0.2 mg/ml poly-D-lysin (Sigma) and 2 μg/ml Laminin (Sigma) coated 12 well plates. Neurons were incubated at 37° C. with 8% CO2. One hour after seeding a complete change of medium was performed. Later on, each 96 hours half volumes of the medium were replaced by fresh medium. After 7 days in culture neurons were treated.
(§2) Cells were incubated with the respective substances as follows: Metformin (Sigma) at final concentrations up to 2.5 mM for 1 to >24 hours, okadaic acid (Sigma) at final concentrations from 1 nM to 10 nM for 4 h, Fostricien (Sigma) at final concentration of 1 μM for 4 h and AICAR (cell signalling) at final concentration of 5 mM for 0.5-16 h. For cell treatment without insulin, medium containing B27+insulin supplement was replaced with medium containing B27-supplement without insulin 24 h before treatment. 3 groups of 2 mice were treated with or without 5 mg/l metformin in the drinking water.
(§3) Cell pellets were homogenized in Magic-Mix (48% UREA, 15 mM Tris-HCL pH 7.5, 8.7% Glycerin, 1% SDS, 0.004% Bromphenolblue, 143 mM Mercaptoethanol), sonicated and boiled for 5 min at 95° C. Proteins were resolved on 8 or 10% SDS gels and blotted onto PVDF-membranes (Roche). Antibodies used in this study were purchased from the following companies: Tau-5 (Biosource), anti-human PHF pSer202 (Thermo scientific), Tau pSer356 (Biosource), Tau pSer262 (Biosource), Tau pSer396 (Sigma), Actin (Sigma), ACC (cell signalling), ACC pSer79 (cell signalling), phospho-S6 ribosomal protein pSer241/244 (cell signalling), p70S6 Kinase (cell signalling), p70S6K pThr421/pSer424 (cell signalling), mTOR (cell signalling), AMPK (cell signallling, AMPK pThr172 (cell singnaling), HRP-anti-rabbit (Amersham), HRP-anti-mouse (Dianova). The resulting bands were quantified using Imagequant5.2. Statistical analyses were performed using SigmaStat software package (v 3.0, SPSS, USA). For timecourse or dose-response studies, data were analyses by one-way ANOVA with post hoc Dunnett's or Bonferonni test to accommodate for multiple comparisons. A Student's t-test was used for two-group comparisons, as appropriate.

The test system of another assay is ACC. Kind of assay: Phosphorylation of the AMPK target ACC (Ser79) in primary cortical neurons. The class given is cell-based, mouse. Conditions: increasing time intervals. As for the experimental part:
as §1
Cells were incubated with the respective substances as follows: Metformin (Sigma) at final concentrations up to 2.5 mM for 1 to >24 hours, okadaic acid (Sigma) at final concentrations from 1 nM to 10 nM for 4 h, Fostricien (Sigma) at final concentration of 1 μM for 4 h and AICAR (cell signalling) at final concentration of 5 mM for 0.5-16 h. For cell treatment without insulin, medium containing B27+insulin supplement was replaced with medium containing B27-supplement without insulin 24 h before treatment. […]
as §3, with “Proteins were resolved on 8 or 10% SDS gels and blotted onto PVDF-membranes (Roche).” left out, “Statistical analyses were performed using SigmaStat software package (v 3.0, SPSS, USA). For timecourse or dose-response studies, data were analyses by one-way ANOVA with post hoc Dunnett's or Bonferonni test to accommodate for multiple comparisons. A Student's t-test was used for two-group comparisons, as appropriate.” left out

Assay [1] has as its target T1, purified PP2Ac (catalytic subunit of PP2A) (Homo sapiens, UniProt P67775).
T1 construct: purchased upstate
Kind of assay: PP2A activity assay (malachite green), purified PP2Ac. The class given is biochemical. Conditions: 10 nM okadaic acid, 1 hour. The procedure: (§4) Either purified PP2Ac (upstate), cell lysates or PP2A-holoenzymes, which were purified by immunoprecipitation using a PP2A-A-subunit antibody (Millipore), were incubated with or without 10 mM metformin or 10 nM okadaic acid for 1 hour. Afterwards PP2A phosphatase activity was determined using a malachite green assay kit (upstate) following the manufacturer's instructions.

In the next assay the test system is PP2A-holoenzymes. Kind of assay: PP2A activity assay (malachite green), PP2A-holoenzymes immunopurified from HeLa cell lysates. Format: biochemical. The settings on record: 10 nM okadaic acid, 1 hour. The procedure:
as §4

A further assay concerns p70S6kinase. Kind of assay: Phosphorylation of p70S6kinase in primary cortical neurons. Format: cell-based, mouse. The settings on record: 0.25 mM phenformin over increasing time intervals. The procedure: as §1, §2, §3
Setting [2] is: increasing concentrations of okadaic acid (1 nM to 10 nM), four hours.

Consider four compounds from patent US20120184624A1, “Treatment of Alzheimer's Disease” (priority 2010, published 2012).

The structures appear in SMILES notation. Where two headings read alike, the source gives them in different places.

T1 sequence (P67775 whole entry): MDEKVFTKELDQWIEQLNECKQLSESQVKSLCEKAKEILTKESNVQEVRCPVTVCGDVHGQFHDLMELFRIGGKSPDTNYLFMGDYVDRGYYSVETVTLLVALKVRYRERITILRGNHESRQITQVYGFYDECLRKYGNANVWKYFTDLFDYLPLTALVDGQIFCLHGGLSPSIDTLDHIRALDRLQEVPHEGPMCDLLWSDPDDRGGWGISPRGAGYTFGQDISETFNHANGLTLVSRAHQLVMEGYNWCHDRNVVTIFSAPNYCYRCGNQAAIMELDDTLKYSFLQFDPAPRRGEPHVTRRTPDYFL

`NC(=O)c1ncn([C@@H]2O[C@H](CO)[C@@H](O)[C@H]2O)c1N` [AICAR]: the “phosphorylation pattern of tau (PP2A sensitive site)” value in the assay on tau (5 mM AICAR, first 16 hours of treatment) is “did not find a significant effect”. For the same compound, the “phosphorylation of tau (Ser202)” value in the assay on tau (AICAR, first 8 hours of treatment) is recorded as “did not see an effect”. In addition, the “ACC phosphorylation (Ser79)” value in the assay with ACC (5 mM AICAR) is recorded as “significantly increased”.
Consider `C=C1[C@@H](O)[C@@H]2O[C@]3(CC[C@H](/C=C/[C@@H](C)[C@@H]4CC(C)=C[C@@]5(O[C@H](C[C@@](C)(O)C(=O)O)CC[C@H]5O)O4)O3)CC[C@H]2O[C@@H]1[C@@H](O)C[C@H](C)[C@H]1O[C@@]2(CCCCO2)CC[C@H]1C` [okadaic acid], for which the “phosphorylation of Ser202” value in the assay on tau (10 nM okadaic acid alone, 4 hours) is “increased”. In the assay with tau (setting [2]), the “phosphorylation of Ser202 relative to total tau” value was “increased with the concentration of OA”, the “phosphorylation of Ser262 relative to total tau” value is listed as “increased with the concentration of OA”, the “phosphorylation of Ser356 relative to total tau” value is recorded as “increased with the concentration of OA” and the “phosphorylation of Ser396 relative to total tau” value is “did not increase significantly”. For the same compound, in assay [1], the “PP2A activity of purified PP2Ac” value is on record as “reduced”. Besides, the “activity of the immunopurified PP2A protein complex” value in the assay on PP2A-holoenzymes is given as “reduced”.
Consider `[H]/N=C(/N)N/C(=N/[H])NCCc1ccccc1` [phenformin, Phenformin], for which the “de-phosphorylation of tau at PP2A sensitive sites” value with tau was “Comparable results”; in the assay on tau (listed as Phenformin), “induces de-phosphorylation”. For the same compound, the “effect on Ser202 phosphorylation with and without okadaic acid pre-treatment” value with tau (okadaic acid 10 nM prior to phenformin 0.25 mM, 4 hours) was “inhibition of PP2A blocks the Phenformin effect”. Moreover, the “phosphorylation status of p70S6kinase” value was “promoted de-phosphorylation” in the assay on p70S6kinase and “decrease of pS6kinase phosphorylation” with p70S6kinase (listed as Phenformin). Also, the “ACC phosphorylation (Ser79)” value in the assay on ACC (0.25 mM phenformin) is given as “neither metformin (FIG. 4a) nor phenformin (FIG. 12) had an effect”.
For the compound `C[C@@](O)(/C=C/[C@H]1CC=CC(=O)O1)[C@@H](C[C@@H](O)\C=C/C=C\C=C\CO)OP(=O)(O)O` [fostriecin], the “phosphorylation at Ser202” value in the assay with tau (1 μM fostriecin alone over 4 hours) is recorded as “increased”.
